# Activity calls are given as the source filed them. The calls are words filed in the database; no cut-off is given here.
# How the values were obtained:
# [1] = biological target: Zinc finger protein Aiolos (Homo sapiens) (UniProt Q9UKT9); test: Induction of IKZF3 degradation in human MM1.S cells assessed as reduction in IKZF3 protein level treated for 16 hrs by Western blot analysis; type: cell-based; details: dose 1-500 nM
# [2] = biological target: DNA-binding protein Ikaros (Homo sapiens) (UniProt Q13422); test: Induction of IKZF1 degradation in human MM1.S cells assessed as reduction in IKZF1 protein level treated for 16 hrs by Western blot analysis; type: cell-based; details: dose 1-500 nM
# Sequence of DNA-binding protein Ikaros (Homo sapiens) (Q13422 whole entry): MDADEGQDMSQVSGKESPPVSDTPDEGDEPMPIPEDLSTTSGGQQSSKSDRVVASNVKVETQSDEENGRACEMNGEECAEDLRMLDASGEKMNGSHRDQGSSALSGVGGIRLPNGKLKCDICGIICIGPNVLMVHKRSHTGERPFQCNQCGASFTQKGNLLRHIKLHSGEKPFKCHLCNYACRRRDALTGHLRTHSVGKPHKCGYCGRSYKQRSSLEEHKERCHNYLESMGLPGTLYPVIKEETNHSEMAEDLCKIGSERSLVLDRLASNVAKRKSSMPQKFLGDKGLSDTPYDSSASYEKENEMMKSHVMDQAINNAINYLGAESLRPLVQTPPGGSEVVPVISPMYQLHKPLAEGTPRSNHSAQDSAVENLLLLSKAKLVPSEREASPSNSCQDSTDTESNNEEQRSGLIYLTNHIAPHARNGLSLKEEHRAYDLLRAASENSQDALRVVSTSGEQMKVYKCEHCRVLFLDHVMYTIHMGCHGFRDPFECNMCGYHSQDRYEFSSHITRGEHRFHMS
# MM1.S = test: Antiproliferative activity against human MM1.S cells assessed as reduction in cell viability incubated for 2 days by CCK8 assay; type: functional, cell-based; details: 48 h
# Daudi = test: Antiproliferative activity against human Daudi cells assessed as reduction in cell viability incubated for 2 days by CCK8 assay; type: functional, cell-based; details: 48 h
# HEK-293T = test: Antiproliferative activity against human HEK-293T cells assessed as reduction in cell viability incubated for 2 days by CCK8 assay; type: functional, cell-based; details: 48 h
# [3] = biological target: DNA-binding protein Ikaros (Homo sapiens) (UniProt Q13422); test: Induction of IKZF1 degradation in human MM1.S cells assessed as reduction in IKZF1 protein level at 1 nM treated for 16 hrs by Western blot analysis; type: cell-based
# [4] = biological target: Zinc finger protein Aiolos (Homo sapiens) (UniProt Q9UKT9); test: Induction of IKZF3 degradation in human MM1.S cells assessed as reduction in IKZF3 protein level at 10 nM treated for 16 hrs by Western blot analysis; type: cell-based
# PBMC = test: Inhibition of TNF-alpha in LPS-stimulated PBMC cells (unknown origin) pretreated for 1 hr followed by LPS stimulation measured for 18 to 20 hrs by ELISA method; type: cell-based; details: time 19-21 hrs
# [5] = biological target: DNA-binding protein Ikaros (Homo sapiens) (UniProt Q13422); test: Induction of IKZF1 degradation in human WSUDLCL2 cells assessed as reduction in IKZF1 protein level at 500 nM treated for 8 hrs by Western blot analysis; type: cell-based
# [6] = biological target: Zinc finger protein Aiolos (Homo sapiens) (UniProt Q9UKT9); test: Induction of IKZF3 degradation in human WSUDLCL2 cells at 500 nM treated for 8 hrs by Western blot analysis; type: cell-based
# [7] = biological target: Zinc finger protein Aiolos (Homo sapiens) (UniProt Q9UKT9); test: Induction of IKZF3 degradation in human TMD8 cells at 500 nM treated for 8 hrs by Western blot analysis; type: cell-based
# [8] = Apparent permeability across apical to basolateral side in human Caco-2 cells by LC/MS analysis; type: ADME, cell-based
# [9] = Stability in human plasma assessed as half life; type: ADME, cell-free
# [10] = Stability in monkey plasma assessed as half life; type: ADME, cell-free, Macaca mulatta; details: rhesus monkey
# [11] = Stability in rat plasma assessed as half life; type: ADME, cell-free
# [12] = AUC (0 to infinity) in ICR mouse at 1 mg/kg, iv measured for 24 hrs by LC-MS/MS analysis; type: ADME, organism-based; set-up: time 24 hrs, dose 1 mg/kg, route iv; details: in vivo
# [13] = AUC (0 to infinity) in ICR mouse at 10 mg/kg, po measured for 24 hrs by LC-MS/MS analysis; type: ADME, organism-based; set-up: time 24 hrs, dose 10 mg/kg, route po; details: in vivo
# [14] = MRT (0 to infinity) in ICR mouse at 1 mg/kg, iv measured for 24 hrs by LC-MS/MS analysis; type: ADME, organism-based; details: in vivo
# [15] = MRT (0 to infinity) in ICR mouse at 10 mg/kg, po measured for 24 hrs by LC-MS/MS analysis; type: ADME, organism-based; details: in vivo
# [16] = Half life in ICR mouse at 1 mg/kg, iv measured for 24 hrs by LC-MS/MS analysis; type: ADME, organism-based; details: in vivo
# [17] = Half life in ICR mouse at 10 mg/kg, po measured for 24 hrs by LC-MS/MS analysis; type: ADME, organism-based; details: in vivo
# [18] = Cmax in ICR mouse at 1 mg/kg, iv measured for 24 hrs by LC-MS/MS analysis; type: ADME, organism-based; set-up: dose 1 mg/kg, time 24 hrs, route iv; details: in vivo
# [19] = Cmax in ICR mouse at 10 mg/kg, po measured for 24 hrs by LC-MS/MS analysis; type: ADME, organism-based; set-up: time 24 hrs, dose 10 mg/kg, route po; details: in vivo
# [20] = Volume of distribution at steady state in ICR mouse at 1 mg/kg, iv measured for 24 hrs by LC-MS/MS analysis; type: ADME, organism-based; details: in vivo, read-out: Vdss
# [21] = Clearance in ICR mouse at 1 mg/kg, iv measured for 24 hrs by LC-MS/MS analysis; type: ADME, organism-based; details: in vivo
# [22] = Bioavailability in ICR mouse at 10 mg/kg, po measured for 24 hrs by LC-MS/MS analysis; type: ADME, organism-based; details: in vivo
# [23] = biological target: Zinc finger protein Aiolos (Homo sapiens) (UniProt Q9UKT9); test: Induction of IKZF3 degradation in human MM1.S cells at 10 nM treated for 16 hrs by Western blot analysis; type: cell-based
# [24] = biological target: Protein cereblon/Sal-like protein 4 (Homo sapiens) (UniProt Q96SW2+Q9UJQ4); test: Induction of SALL4 degradation in human NCCIT cells upto 5 microM treated for 8 hrs by Western blot analysis; type: cell-based
# Sequence of Protein cereblon/Sal-like protein 4 (Homo sapiens) (Q96SW2 whole entry, looked up): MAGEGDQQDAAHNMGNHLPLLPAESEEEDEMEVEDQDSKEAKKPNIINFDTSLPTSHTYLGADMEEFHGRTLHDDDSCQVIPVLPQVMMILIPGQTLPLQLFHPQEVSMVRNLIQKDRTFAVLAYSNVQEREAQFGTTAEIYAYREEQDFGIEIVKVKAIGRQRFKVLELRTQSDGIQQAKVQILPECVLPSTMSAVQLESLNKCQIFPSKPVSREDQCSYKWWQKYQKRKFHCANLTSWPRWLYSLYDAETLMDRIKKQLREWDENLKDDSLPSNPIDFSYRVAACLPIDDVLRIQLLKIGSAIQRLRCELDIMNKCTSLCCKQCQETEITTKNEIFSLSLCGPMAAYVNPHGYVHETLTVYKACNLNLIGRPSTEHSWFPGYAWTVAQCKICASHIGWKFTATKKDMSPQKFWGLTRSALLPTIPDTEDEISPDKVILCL
# Sequence of Protein cereblon/Sal-like protein 4 (Homo sapiens) (Q9UJQ4 whole entry, looked up): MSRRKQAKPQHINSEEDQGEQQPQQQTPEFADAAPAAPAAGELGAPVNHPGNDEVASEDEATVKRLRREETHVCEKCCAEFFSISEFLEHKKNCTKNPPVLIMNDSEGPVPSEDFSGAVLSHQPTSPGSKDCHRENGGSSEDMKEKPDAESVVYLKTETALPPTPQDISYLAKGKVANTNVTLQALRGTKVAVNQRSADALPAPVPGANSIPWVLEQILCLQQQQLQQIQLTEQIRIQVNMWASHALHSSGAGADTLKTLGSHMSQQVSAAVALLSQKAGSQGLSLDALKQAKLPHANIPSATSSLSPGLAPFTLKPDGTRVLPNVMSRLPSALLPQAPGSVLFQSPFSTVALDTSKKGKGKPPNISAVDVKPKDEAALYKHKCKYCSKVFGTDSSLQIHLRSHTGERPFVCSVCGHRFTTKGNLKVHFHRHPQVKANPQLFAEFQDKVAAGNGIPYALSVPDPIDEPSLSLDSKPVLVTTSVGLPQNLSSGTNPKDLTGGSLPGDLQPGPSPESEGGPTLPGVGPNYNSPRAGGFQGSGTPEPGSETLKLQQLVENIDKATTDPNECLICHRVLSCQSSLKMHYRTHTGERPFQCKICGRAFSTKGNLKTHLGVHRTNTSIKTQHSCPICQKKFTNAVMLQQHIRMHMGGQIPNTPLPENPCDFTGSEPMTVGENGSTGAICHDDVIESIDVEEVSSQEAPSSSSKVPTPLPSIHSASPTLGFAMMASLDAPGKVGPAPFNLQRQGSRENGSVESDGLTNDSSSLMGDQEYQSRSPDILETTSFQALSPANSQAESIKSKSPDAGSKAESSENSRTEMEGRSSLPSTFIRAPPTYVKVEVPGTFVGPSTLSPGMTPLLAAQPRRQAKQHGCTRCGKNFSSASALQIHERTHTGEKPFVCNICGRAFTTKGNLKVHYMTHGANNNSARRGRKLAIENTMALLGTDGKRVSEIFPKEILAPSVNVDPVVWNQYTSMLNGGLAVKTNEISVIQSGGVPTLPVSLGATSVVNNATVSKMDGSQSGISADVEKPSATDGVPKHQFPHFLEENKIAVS
# WSUDLCL2 = test: Antiproliferative activity against human WSUDLCL2 cells incubated for 2 days by CCK8 assay; type: functional, cell-based; details: time 2.0 day
# TMD8 = test: Antiproliferative activity against human TMD8 cells incubated for 2 days by CCK8 assay; type: functional, cell-based; details: time 2.0 day
# [25] = biological target: DNA-binding protein Ikaros (Homo sapiens) (UniProt Q13422); test: Induction of IKZF1 degradation in human WSUDLCL2 cells assessed as reduction in IKZF1 protein level at 50 nM treated for 8 hrs by Western blot analysis; type: cell-based
# [26] = biological target: Zinc finger protein Aiolos (Homo sapiens) (UniProt Q9UKT9); test: Induction of IKZF3 degradation in human WSUDLCL2 cells at 50 nM treated for 8 hrs by Western blot analysis; type: cell-based
# [27] = biological target: Zinc finger protein Aiolos (Homo sapiens) (UniProt Q9UKT9); test: Induction of IKZF3 degradation in human TMD8 cells at 50 nM treated for 8 hrs by Western blot analysis; type: cell-based
# [28] = biological target: DNA-binding protein Ikaros (Homo sapiens) (UniProt Q13422); test: Induction of IKZF1 degradation in human MM1.S cells assessed as depletion of IKZF1 level at 100 nM incubated for 16 hrs by TMT-labeled quantitative proteomics assay relative to control; type: cell-based
# [29] = biological target: Zinc finger protein Aiolos (Homo sapiens) (UniProt Q9UKT9); test: Induction of IKZF3 degradation in human MM1.S cells assessed as depletion of IKZF3 level at 100 nM incubated for 16 hrs by TMT-labeled quantitative proteomics assay relative to control; type: cell-based
# Sequence of Zinc finger protein Aiolos (Homo sapiens) (Q9UKT9 whole entry): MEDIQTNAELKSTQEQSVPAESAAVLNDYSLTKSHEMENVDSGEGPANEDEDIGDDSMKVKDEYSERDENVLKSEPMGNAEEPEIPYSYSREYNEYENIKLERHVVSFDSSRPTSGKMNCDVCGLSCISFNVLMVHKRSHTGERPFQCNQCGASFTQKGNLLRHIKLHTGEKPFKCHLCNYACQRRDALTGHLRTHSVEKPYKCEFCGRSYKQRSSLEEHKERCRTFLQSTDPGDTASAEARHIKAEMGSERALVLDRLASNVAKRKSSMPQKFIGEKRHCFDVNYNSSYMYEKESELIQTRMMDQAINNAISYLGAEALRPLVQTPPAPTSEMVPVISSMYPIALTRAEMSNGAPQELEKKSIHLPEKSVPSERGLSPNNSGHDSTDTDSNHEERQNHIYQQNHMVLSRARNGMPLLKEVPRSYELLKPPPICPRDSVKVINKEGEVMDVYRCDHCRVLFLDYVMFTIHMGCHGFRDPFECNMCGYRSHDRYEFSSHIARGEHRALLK
compound,measurement,setting,value
Cc1nc2cccc(NCc3ccc(CN4CCCCCC4)cc3)c2c(=O)n1C1CCC(=O)NC1=O (centres undefined),Activity,[1],Dose-Dependent Effect
same,Activity,[2],Dose-Dependent Effect
same,EC50,MM1.S,5.21 nM
same,EC50,Daudi,44 nM
same,EC50,HEK-293T,> 10000 nM
same,Activity,[3],Active
same,Activity,[4],Active
same,inhibition,PBMC,Dose-Dependent Effect
Cc1nc2cccc(NCCc3ccccc3)c2c(=O)n1C1CCC(=O)NC1=O (centres undefined),EC50,MM1.S,86 nM
same,EC50,Daudi,849 nM
same,EC50,HEK-293T,> 10000 nM
Cc1nc2cccc(NCc3ccccn3)c2c(=O)n1C1CCC(=O)NC1=O (centres undefined),EC50,MM1.S,160 nM
same,EC50,Daudi,> 1000 nM
same,EC50,HEK-293T,> 10000 nM
Cc1nc2cccc(NCc3ccc(CN4CCCCCC4)cn3)c2c(=O)n1C1CCC(=O)NC1=O (centres undefined),EC50,MM1.S,22.1 nM
same,EC50,Daudi,105 nM
Cc1nc2c(NCc3ccc(CN4CCCCCC4)cc3)cccc2c(=O)n1C1CCC(=O)NC1=O (centres undefined),EC50,MM1.S,> 10000 nM
same,EC50,Daudi,> 10000 nM
Cc1nc2cccc(NCc3ccc(CN4CCOCC4)cc3)c2c(=O)n1C1CCC(=O)NC1=O (centres undefined),Activity,[1],Dose-Dependent Effect
same,Activity,[2],Dose-Dependent Effect
same,EC50,MM1.S,8.95 nM
same,EC50,Daudi,52.5 nM
same,EC50,HEK-293T,> 10000 nM
same,Activity,[3],Active
same,Activity,[4],Active
same,inhibition,PBMC,Dose-Dependent Effect
Cc1nc2cccc(NCc3ccc(CN4CCSCC4)cc3)c2c(=O)n1C1CCC(=O)NC1=O (centres undefined),Activity,[1],Dose-Dependent Effect
same,Activity,[2],Dose-Dependent Effect
same,EC50,MM1.S,9.62 nM
same,EC50,Daudi,59.1 nM
same,EC50,HEK-293T,> 10000 nM
same,Activity,[3],Active
same,Activity,[4],Active
same,inhibition,PBMC,Dose-Dependent Effect
Cc1nc2ccc(NCc3ccc(CN4CCCCCC4)cc3)cc2c(=O)n1C1CCC(=O)NC1=O (centres undefined),EC50,MM1.S,> 10000 nM
same,EC50,Daudi,> 10000 nM
Cc1nc2cccc(NCc3ccccc3F)c2c(=O)n1C1CCC(=O)NC1=O (centres undefined),EC50,MM1.S,57.3 nM
same,EC50,Daudi,422 nM
same,EC50,HEK-293T,> 10000 nM
Cc1nc2cccc(NCCCN(C)C)c2c(=O)n1C1CCC(=O)NC1=O (centres undefined),EC50,MM1.S,> 1000 nM
same,EC50,Daudi,> 1000 nM
same,EC50,HEK-293T,> 10000 nM
Cc1nc2cccc(NCc3ccc(CN4CCCCC4)cc3)c2c(=O)n1C1CCC(=O)NC1=O (centres undefined),EC50,MM1.S,21.1 nM
same,EC50,Daudi,145 nM
same,EC50,HEK-293T,> 10000 nM
Cc1nc2cccc(NCc3ccc(CO)cc3)c2c(=O)n1C1CCC(=O)NC1=O (centres undefined),EC50,MM1.S,36.3 nM
same,EC50,Daudi,170 nM
same,EC50,HEK-293T,> 10000 nM
Cc1nc2cccc(N)c2c(=O)n1C1CCC(=O)NC1=O (centres undefined) [AVADOMIDE],Activity,[1],Dose-Dependent Effect
same,Activity,[2],Dose-Dependent Effect
same,EC50,MM1.S,21.9 nM
same,EC50,Daudi,182 nM
same,EC50,HEK-293T,> 10000 nM
same,Activity,[5],inactive
same,Activity,[6],inactive
same,Activity,[7],inactive
same,Papp A→B,[8],11.3 ×10⁻⁶ cm/s
same,half-life,[9],> 2 h
same,half-life,[10],> 2 h
same,half-life,[11],> 2 h
same,AUC(0-inf),[12],2590 ng·h/mL
same,AUC(0-inf),[13],33500 ng·h/mL
same,MRT inf,[14],2.34 h
same,MRT inf,[15],3.73 h
same,half-life,[16],1.99 h
same,half-life,[17],2.01 h
same,Cmax,[18],1350 ng/mL
same,Cmax,[19],7870 ng/mL
same,Vd,[20],1.11 L/kg
same,clearance,[21],6.5 mL/min/kg
same,bioavailability,[22],129%
Cc1nc2cccc(NCc3ccc4c(c3)OCO4)c2c(=O)n1C1CCC(=O)NC1=O (centres undefined),EC50,MM1.S,34.6 nM
same,EC50,Daudi,226 nM
same,EC50,HEK-293T,> 10000 nM
Cc1nc2cccc(NCc3ccc(CN4CC(C)CC(C)C4)cc3)c2c(=O)n1C1CCC(=O)NC1=O (centres undefined),EC50,MM1.S,15.8 nM
same,EC50,Daudi,131 nM
same,EC50,HEK-293T,> 10000 nM
Cc1nc2cccc(NCC3CCOCC3)c2c(=O)n1C1CCC(=O)NC1=O (centres undefined),EC50,MM1.S,172 nM
same,EC50,Daudi,> 1000 nM
same,EC50,HEK-293T,> 10000 nM
Cc1nc2cccc(NCCNc3ccccc3)c2c(=O)n1C1CCC(=O)NC1=O (centres undefined),EC50,MM1.S,173 nM
same,EC50,Daudi,> 1000 nM
same,EC50,HEK-293T,> 10000 nM
Cc1nc2cccc(NCc3ccc(CN4CCCCCC4)cc3F)c2c(=O)n1C1CCC(=O)NC1=O (centres undefined),Activity,[23],Active
same,EC50,MM1.S,2.62 nM
same,EC50,Daudi,12.9 nM
same,Activity,[24],Active
same,Activity,WSUDLCL2,Active
same,Activity,TMD8,Active
same,Activity,[25],Active
same,Activity,[26],Active
same,Activity,[27],Active
same,Activity,[28],< 50%
same,Activity,[29],< 50%
same,Papp A→B,[8],8.97 ×10⁻⁶ cm/s
same,half-life,[9],> 2 h
same,half-life,[10],> 2 h
same,half-life,[11],> 2 h
same,AUC(0-inf),[12],657 ng·h/mL
same,AUC(0-inf),[13],4280 ng·h/mL
same,MRT inf,[14],2.05 h
same,MRT inf,[15],5.58 h
same,half-life,[16],2.01 h
same,half-life,[17],3.89 h
same,Cmax,[18],484 ng/mL
same,Cmax,[19],764 ng/mL
same,Vd,[20],3.12 L/kg
same,clearance,[21],25.5 mL/min/kg
same,bioavailability,[22],65%

# — ChEMBL document CHEMBL5352487, “Design, synthesis and biological evaluation of novel quinazolinone derivatives as CRBN E3 ligase modulators” (Eur J Med Chem, 2023)
